The source of these data is the NIST ThermoML archive (doi:10.1016/j.jct.2014.03.001).

The term speed of sound denotes the propagation velocity of pressure waves in the medium. By mass density is commonly meant mass per unit of volume.

The nature of series [1]: mn = molality of the nth substance listed, in mol/kg. The note with it: 84.51 kPa, Liquid; for speed of sound: Frequency=3 MHz, Sing-around technique in a fixed-path interferometer; for mass density: Vibrating tube method.
For series [2] the following is noted: 313.15 K; 84.51 kPa; Liquid; Frequency=3 MHz; Sing-around technique in a fixed-path interferometer.

Numbers after ± are expanded uncertainties.

Take `O=[N+]([O-])[O-].[Na+]` [sodium nitrate] + O: the speed of sound in series [1] (288.15 K, m1 = 0.035) is 1468.2 ± 1.5 m/s; in series [1] (293.15 K, m1 = 0.035), 1484.2 ± 1.5 m/s; in series [1] (298.15 K, m1 = 0.035), 1498.3 ± 1.5 m/s; in series [1] (303.15 K, m1 = 0.035), 1510.5 ± 1.5 m/s; in series [1] (308.15 K, m1 = 0.035) it was 1521.1 ± 1.5 m/s; in series [1] (313.15 K, m1 = 0.035), 1530.1 ± 1.5 m/s. The mass density in series [1] (288.15 K, m1 = 0.035) is reported as 1001.14 ± 0.2 kg/m3; in series [1] (293.15 K, m1 = 0.035), 1000.21 ± 0.2 kg/m3; in series [1] (298.15 K, m1 = 0.035), 999.017 ± 0.2 kg/m3; in series [1] (303.15 K, m1 = 0.035), 997.592 ± 0.2 kg/m3; in series [1] (308.15 K, m1 = 0.035), 995.954 ± 0.2 kg/m3; in series [1] (313.15 K, m1 = 0.035), 994.12 ± 0.2 kg/m3.
Regarding `[Cl-].[Cl-].[Mg+2]` [magnesium chloride] + O, the speed of sound was 1471.1 ± 1.6 m/s in series [1] (288.15 K, m1 = 0.035); 1487.1 ± 1.6 m/s in series [1] (293.15 K, m1 = 0.035); 1501.3 ± 1.6 m/s in series [1] (298.15 K, m1 = 0.035); 1513.5 ± 1.6 m/s in series [1] (303.15 K, m1 = 0.035); 1524 ± 1.6 m/s in series [1] (308.15 K, m1 = 0.035). In addition, the mass density in series [1] (288.15 K, m1 = 0.035) is recorded as 1002.4 ± 0.26 kg/m3; in series [1] (293.15 K, m1 = 0.035) it was 1001.48 ± 0.26 kg/m3; in series [1] (298.15 K, m1 = 0.035), 1000.31 ± 0.26 kg/m3; in series [1] (303.15 K, m1 = 0.035) it was 998.899 ± 0.26 kg/m3; in series [1] (308.15 K, m1 = 0.035) it was 997.276 ± 0.26 kg/m3; in series [1] (313.15 K, m1 = 0.035), 995.455 ± 0.26 kg/m3.
Turning to `O` [water], in series [2], the speed of sound turned out to be 1529.2 ± 1.2 m/s.
As for `[Cl][Fe]([Cl])[Cl]` [ferric chloride] + O, the speed of sound in series [1] (288.15 K, m1 = 0.035) is reported as 1470.9 ± 1.5 m/s; in series [1] (293.15 K, m1 = 0.035), 1486.8 ± 1.5 m/s; in series [1] (298.15 K, m1 = 0.035), 1500.8 ± 1.5 m/s; in series [1] (303.15 K, m1 = 0.035), 1513 ± 1.5 m/s; in series [1] (308.15 K, m1 = 0.035), 1523.5 ± 1.5 m/s; in series [1] (313.15 K, m1 = 0.035), 1532.4 ± 1.5 m/s. The mass density is reported as 1003.96 ± 0.2 kg/m3 in series [1] (288.15 K, m1 = 0.035); 1003.05 ± 0.2 kg/m3 in series [1] (293.15 K, m1 = 0.035); 1001.87 ± 0.2 kg/m3 in series [1] (298.15 K, m1 = 0.035); 1000.46 ± 0.2 kg/m3 in series [1] (303.15 K, m1 = 0.035); 998.83 ± 0.2 kg/m3 in series [1] (308.15 K, m1 = 0.035); 997.003 ± 0.2 kg/m3 in series [1] (313.15 K, m1 = 0.035).
With `O=S(=O)([O-])[O-].[Na+].[Na+]` [sodium sulfate] + O, the speed of sound stood at 1472.6 ± 1.6 m/s in series [1] (288.15 K, m1 = 0.035); 1488.6 ± 1.6 m/s in series [1] (293.15 K, m1 = 0.035); 1502.6 ± 1.6 m/s in series [1] (298.15 K, m1 = 0.035); 1514.8 ± 1.6 m/s in series [1] (303.15 K, m1 = 0.035); 1525.3 ± 1.6 m/s in series [1] (308.15 K, m1 = 0.035); 1534.2 ± 1.6 m/s in series [1] (313.15 K, m1 = 0.035). The mass density in series [1] (288.15 K, m1 = 0.035) was determined as 1003.68 ± 0.26 kg/m3; in series [1] (293.15 K, m1 = 0.035), 1002.73 ± 0.26 kg/m3; in series [1] (298.15 K, m1 = 0.035) it was 1001.52 ± 0.26 kg/m3; in series [1] (303.15 K, m1 = 0.035) it was 1000.09 ± 0.26 kg/m3; in series [1] (308.15 K, m1 = 0.035) it was 998.436 ± 0.26 kg/m3; in series [1] (313.15 K, m1 = 0.035), 996.589 ± 0.26 kg/m3.
As for `[Cl-].[K+]` [potassium chloride] + O, the speed of sound in series [1] (288.15 K, m1 = 0.035) is 1468.5 ± 1.5 m/s; in series [1] (293.15 K, m1 = 0.035) it was 1484.5 ± 1.5 m/s; in series [1] (298.15 K, m1 = 0.035), 1498.7 ± 1.5 m/s; in series [1] (303.15 K, m1 = 0.035) it was 1510.9 ± 1.5 m/s; in series [1] (308.15 K, m1 = 0.035) it was 1521.5 ± 1.5 m/s; in series [1] (313.15 K, m1 = 0.035), 1530.5 ± 1.5 m/s. In addition, the mass density in series [1] (288.15 K, m1 = 0.035) was 1000.79 ± 0.2 kg/m3; in series [1] (293.15 K, m1 = 0.035), 999.873 ± 0.2 kg/m3; in series [1] (298.15 K, m1 = 0.035) it was 998.698 ± 0.2 kg/m3; in series [1] (303.15 K, m1 = 0.035), 997.288 ± 0.2 kg/m3; in series [1] (308.15 K, m1 = 0.035), 995.661 ± 0.2 kg/m3; in series [1] (313.15 K, m1 = 0.035), 993.836 ± 0.2 kg/m3.
`C[N+](C)(C)C.[Cl-]` [tetramethylammonium chloride] + O: the speed of sound in series [1] (288.15 K, m1 = 0.035) is listed as 1470.2 ± 1.8 m/s; in series [1] (293.15 K, m1 = 0.035), 1486.1 ± 1.9 m/s; in series [1] (298.15 K, m1 = 0.035) it was 1500.1 ± 1.9 m/s; in series [1] (303.15 K, m1 = 0.035), 1512.3 ± 1.9 m/s; in series [1] (308.15 K, m1 = 0.035), 1522.8 ± 1.9 m/s; in series [1] (313.15 K, m1 = 0.035), 1531.7 ± 1.9 m/s. The mass density in series [1] (288.15 K, m1 = 0.035) turned out to be 999.201 ± 0.42 kg/m3; in series [1] (293.15 K, m1 = 0.035), 998.29 ± 0.42 kg/m3; in series [1] (298.15 K, m1 = 0.035), 997.12 ± 0.42 kg/m3; in series [1] (303.15 K, m1 = 0.035), 995.716 ± 0.42 kg/m3; in series [1] (308.15 K, m1 = 0.035), 994.093 ± 0.42 kg/m3; in series [1] (313.15 K, m1 = 0.035), 992.272 ± 0.42 kg/m3.
On to `O=C([O-])[O-].[Na+].[Na+]` [sodium carbonate] + O, for which the speed of sound in series [1] (288.15 K, m1 = 0.035) came to 1473.1 ± 1.4 m/s; in series [1] (293.15 K, m1 = 0.035), 1489.1 ± 1.4 m/s; in series [1] (298.15 K, m1 = 0.035) it was 1503 ± 1.4 m/s; in series [1] (303.15 K, m1 = 0.035), 1515.2 ± 1.4 m/s; in series [1] (308.15 K, m1 = 0.035) it was 1525.7 ± 1.4 m/s; in series [1] (313.15 K, m1 = 0.035) it was 1534.6 ± 1.4 m/s. Moreover, the mass density came to 1003.04 ± 0.17 kg/m3 in series [1] (288.15 K, m1 = 0.035); 1002.09 ± 0.17 kg/m3 in series [1] (293.15 K, m1 = 0.035); 1000.88 ± 0.17 kg/m3 in series [1] (298.15 K, m1 = 0.035); 999.439 ± 0.17 kg/m3 in series [1] (303.15 K, m1 = 0.035); 997.791 ± 0.17 kg/m3 in series [1] (308.15 K, m1 = 0.035); 995.95 ± 0.17 kg/m3 in series [1] (313.15 K, m1 = 0.035).
`O` [water] + CCCCCCCCCCCCn1cc[n+](C)c1.[Br-]: in series [1] (313.15 K, m2 = 0), the speed of sound is 1529.2 ± 1.2 m/s.
`O=C([O-])CC(O)(CC(=O)[O-])C(=O)[O-].[Na+].[Na+].[Na+]` [trisodium citrate] + O: the speed of sound in series [1] (288.15 K, m1 = 0.035) turned out to be 1474.7 ± 1.6 m/s; in series [1] (293.15 K, m1 = 0.035) it was 1490.6 ± 1.6 m/s; in series [1] (298.15 K, m1 = 0.035), 1504.5 ± 1.6 m/s; in series [1] (303.15 K, m1 = 0.035), 1516.7 ± 1.6 m/s; in series [1] (308.15 K, m1 = 0.035) it was 1527.1 ± 1.6 m/s; in series [1] (313.15 K, m1 = 0.035), 1536 ± 1.6 m/s. Moreover, the mass density in series [1] (288.15 K, m1 = 0.035) came to 1005.71 ± 0.26 kg/m3; in series [1] (293.15 K, m1 = 0.035) it was 1004.75 ± 0.26 kg/m3; in series [1] (298.15 K, m1 = 0.035) it was 1003.53 ± 0.26 kg/m3; in series [1] (303.15 K, m1 = 0.035) it was 1002.08 ± 0.26 kg/m3; in series [1] (308.15 K, m1 = 0.035), 1000.42 ± 0.26 kg/m3; in series [1] (313.15 K, m1 = 0.035) it was 998.572 ± 0.26 kg/m3.
On to `Cl.N` [ammonium chloride (NH4Cl)] + O, for which the speed of sound in series [1] (288.15 K, m1 = 0.035) is recorded as 1468.2 ± 1.4 m/s; in series [1] (293.15 K, m1 = 0.035) it was 1484.2 ± 1.4 m/s; in series [1] (298.15 K, m1 = 0.035), 1498.4 ± 1.4 m/s; in series [1] (303.15 K, m1 = 0.035), 1510.7 ± 1.4 m/s; in series [1] (308.15 K, m1 = 0.035), 1521.3 ± 1.4 m/s; in series [1] (313.15 K, m1 = 0.035), 1530.4 ± 1.4 m/s. The mass density in series [1] (288.15 K, m1 = 0.035) worked out at 999.719 ± 0.17 kg/m3; in series [1] (293.15 K, m1 = 0.035), 998.814 ± 0.17 kg/m3; in series [1] (298.15 K, m1 = 0.035), 997.645 ± 0.17 kg/m3; in series [1] (303.15 K, m1 = 0.035), 996.243 ± 0.17 kg/m3; in series [1] (308.15 K, m1 = 0.035), 994.624 ± 0.18 kg/m3; in series [1] (313.15 K, m1 = 0.035), 992.807 ± 0.18 kg/m3.
As to `[Cl-].[Na+]` [sodium chloride] + O, the speed of sound in series [1] (288.15 K, m1 = 0.035) is 1468.8 ± 1.5 m/s; in series [1] (293.15 K, m1 = 0.035) it was 1484.9 ± 1.5 m/s; in series [1] (303.15 K, m1 = 0.035), 1511.3 ± 1.5 m/s; in series [1] (308.15 K, m1 = 0.035) it was 1521.9 ± 1.5 m/s; in series [1] (313.15 K, m1 = 0.035) it was 1530.9 ± 1.5 m/s. Further, the mass density was 1000.55 ± 0.2 kg/m3 in series [1] (288.15 K, m1 = 0.035); 999.636 ± 0.2 kg/m3 in series [1] (293.15 K, m1 = 0.035); 998.457 ± 0.2 kg/m3 in series [1] (298.15 K, m1 = 0.035); 997.046 ± 0.2 kg/m3 in series [1] (303.15 K, m1 = 0.035); 995.419 ± 0.2 kg/m3 in series [1] (308.15 K, m1 = 0.035); 993.592 ± 0.2 kg/m3 in series [1] (313.15 K, m1 = 0.035).
